In publication PMC7367283, “A PIP2 substitute mediates voltage sensor-pore coupling in KCNQ activation” (Communications Biology, 2020):

Target: T1, Kir1.1 (Homo sapiens, UniProt P48048)
T1 sequence (P48048 1-391): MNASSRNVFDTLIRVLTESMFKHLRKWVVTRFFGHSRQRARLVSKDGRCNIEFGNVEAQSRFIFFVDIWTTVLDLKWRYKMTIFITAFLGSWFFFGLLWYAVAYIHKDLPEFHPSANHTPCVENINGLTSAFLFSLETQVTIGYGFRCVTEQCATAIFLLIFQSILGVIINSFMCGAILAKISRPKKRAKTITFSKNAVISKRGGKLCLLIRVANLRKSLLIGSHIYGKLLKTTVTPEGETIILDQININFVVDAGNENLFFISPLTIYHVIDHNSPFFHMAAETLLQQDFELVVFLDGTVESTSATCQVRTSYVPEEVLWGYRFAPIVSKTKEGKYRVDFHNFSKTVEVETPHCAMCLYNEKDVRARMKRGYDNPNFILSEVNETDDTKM
Test: Two-electrode voltage clamp of Kir1.1 in Xenopus oocytes
Format: cell-based
Settings: 10 µM CP1; for Current (Fig. 6b): mean
Excerpt: Since CP1 has a similar effect to PIP2 in mediating VSD-pore coupling in KCNQ channels, we tested if CP1 has effects on other ion channels that are also sensitive to PIP2 or are voltage activated and share general structural features of the VSD and the pore with KCNQ. […] On the other hand, NaV1.5 and KV4.2 are voltage-gated ion channels.
Fig. 6 Effects of CP1 on other ion channels expressed in Xenopus oocytes. a Currents of Kir1.1, CaV1.2, NaV1.5, hERG, and KV4.2 before and after application of 10 µM CP1, respectively. The voltages for holding, test, and returning pulses were Kir1.1, 0 mV, −100 to +60 mV, 0; CaV1.2, −100 mV, −100 to +60, −100 mV; NaV1.5, −100, −120 to +40 mV, −120 mV; hERG, −80 mV, −90 to +60 mV, −60 mV; KV4.2, −80 mV, −100 mV to +80 mV, −40 mV; HCN4, −30 mV, −30 to −140 mV, −120 mV. b Current–voltage relations of Kir1.1 channel in the absence or presence of 10 µM CP1 (n = 7). c–g G–V relations of indicated channels with and without 10 µM CP1. The ΔV1/2 of G–V relations (mV) are CaV1.2, 3.38 ± 0.71 mV (c); NaV1.5, −2.26 ± 0.95 mV (d); hERG, 6.85 ± 1.81 mV (e); KV 4.2, −2.26 ± 2.88 mV (f); HCN4, 17.13 ± 1.59 mV (g).
Complementary DNA (cDNA) encoding human KCNQ1 (UniProtKB/Swiss‐Prot under accession no. P51787), KCNQ2 (O43526), KCNQ3 (O43525), KCNE1 (P15382), Kir1.1 (P48048), hERG (Q12809), KV4.2 (Q63881), NaV1.5 (Q14524), NaV β1 (Q07699), CaV1.2 (Q13936), CaV β1a (Q02641), CaV α2/δ1 (P54289), and HCN4 (Q9Y3Q4) were subcloned into oocyte expression vectors, respectively. Site-directed mutations of the KCNQ1 channel were all produced by overlap extension polymerase chain reaction (PCR) with high-fidelity Pfu polymerase (Stratagene, CA). The presence of the desired mutation was verified by sequencing the PCR-amplified regions. All the primer sequences used in this study are available in Supplementary Table 1. The complementary RNA (cRNA) of all these channels and mutations was transcribed in vitro with the T3, T7, or SP6 polymerase mMessage mMachine kit (Invitrogen, Thermo Fisher Scientific, MO).
The whole-oocyte ionic currents were recorded with a GeneClamp 500B amplifier (Axon Instruments, CA) or iTEV90 amplifier (HEKA, Germany) and then sampled at 1 kHz and low-pass-filtered at 2 kHz. The Patchmaster software (HEKA, Germany) was used to acquire data. The Kir1.1 current was recorded with a high K^+ bath solution containing (in mM) 96 KCl, 4 NaCl, 1 CaCl2, 2 MgCl2, and 10 HEPES, pH 7.3–7.4. The HCN4 current was recorded in ND66 solution containing (in mM) 66 NaCl, 32 KCl, 1.8 CaCl2, 1 MgCl2, and 5 HEPES, pH 7.6. All the other potassium channels were recorded in ND96 solution. The currents of CaV1.2 channel were recorded in 40 mM Ba^2+ bath solution containing (in mM) 40 Ba(OH)2, 50 TEA-OH, 2 KOH, and 5 HEPES, adjusted to pH 7.4 with methanesulfonic acid. CP1 (DISODIUM 5-BROMO-2-[9-CHLORO-3-(SULFONATOOXY) NAPHTHO [1,2-B] THIEN-2-YL]-1H-INDOL-3-YL SULFATE, Sigma-Aldrich, MO) and Chromanol 293B (Sigma-Aldrich, MO) were dissolved in bath solutions. All the chemicals were purchased from Sigma-Aldrich. To measure the I–V relations of the Kir1.1 channel, the test voltage was set from −100 to +60 mV for 1 s with 20-mV increments. The test pulses were stepped from a holding potential of 0 mV and then stepped back to 0 mV. The HCN4 currents were recorded by a test pulse between −30 and −140 mV in 10-mV step from a holding potential of −30 mV. For all the other potassium channels and CaV1.2 channel, the holding potential was −80 or −100 mV, and the test pulse was applied with 10-mV increment, which was followed with a repolarization pulse at −40 mV before returning to the holding potential. The durations of test and the repolarization pulse vary for different channels to allow the activation and deactivation of the channel to reach their steady states.

O=S(=O)([O-])Oc1c(-c2sc3c(ccc4cccc(Cl)c43)c2OS(=O)(=O)[O-])[nH]c2ccc(Br)cc12.[Na+].[Na+] [CP1, DISODIUM 5-BROMO-2-[9-CHLORO-3-(SULFONATOOXY) NAPHTHO [1,2-B] THIEN-2-YL]-1H-INDOL-3-YL SULFATE]
effect on currents of Kir1.1: little effect | Current (Fig. 6b) (voltage 0 mV): -0.8738 µA | Current (Fig. 6b) (voltage 20 mV): 8.1285 µA | Current (Fig. 6b) (voltage 40 mV): 17.0203 µA | Current (Fig. 6b) (voltage 60 mV): 25.9074 µA | Current (Fig. 6b) (voltage -20 mV): -9.7186 µA | Current (Fig. 6b) (voltage -40 mV): -18.5616 µA | Current (Fig. 6b) (voltage -60 mV): -27.3089 µA | Current (Fig. 6b) (voltage -80 mV): -36.1588 µA | Current (Fig. 6b) (voltage -100 mV): -44.9245 µA
